Holding throughout (format): binding
Experiment [1] has as its target T1, AstC (Escherichia coli, UniProt P77581).
T1 construct: full-length, native untagged, no plasmid; purified from E. coli BL21(DE3) by Ni-NTA and size exclusion as apo-protein, reconstituted with PLP; about 406 residues; dimer
Put plainly: differential scanning fluorimetry, SYPRO dye. The following applies: Tris buffered saline; apo-protein plus PLP (about 10-fold excess) versus apo-protein. In general terms: DSF heats the sample and reads unfolding from a dye or from intrinsic fluorescence.

The target of experiment [2] is T1, AstC. As to the kind of experiment: X-ray crystal structure, […] Å. The settings on record: covalent; internal aldimine with Lys252 at dimer interface; sodium malonate, Tris pH 8.0.
For experiment [3], the target named is T1, AstC. As to the kind of experiment: X-ray crystal structure of co-crystals, […] Å. The settings on record: covalent to PLP cofactor (external aldimine); PLP present; salt bridge to Arg141; ammonium sulfate pH 7-9.

Results on two compounds are retold here after PMC3590144, “Determination of the Structure of the Catabolic N-Succinylornithine Transaminase (AstC) from Escherichia coli” (PLoS ONE, 2013).

Molecules are shown by their SMILES.

T1 sequence (P77581 whole entry): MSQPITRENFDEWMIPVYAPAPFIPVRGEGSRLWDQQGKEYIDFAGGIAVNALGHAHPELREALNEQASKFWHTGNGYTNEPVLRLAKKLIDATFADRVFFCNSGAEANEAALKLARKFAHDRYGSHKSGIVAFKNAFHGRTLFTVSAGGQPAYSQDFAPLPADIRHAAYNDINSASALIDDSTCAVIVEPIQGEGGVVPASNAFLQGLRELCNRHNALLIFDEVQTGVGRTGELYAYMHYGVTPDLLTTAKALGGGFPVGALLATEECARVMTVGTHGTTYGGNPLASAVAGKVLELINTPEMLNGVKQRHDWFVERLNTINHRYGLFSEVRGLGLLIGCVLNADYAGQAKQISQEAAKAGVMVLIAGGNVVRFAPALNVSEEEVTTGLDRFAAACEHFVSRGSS

As for `Cc1ncc(COP(=O)(O)O)c(C=O)c1O` [PLP, pyridoxal phosphate], the “apparent Tm (holo-AstC; apo-AstC 43.5)” value in experiment [1] turned out to be 46 °C. Also, in experiment [2], the “X-ray crystal structure, 2.20 Å” value is “continuous density between Lys252 and the PLP, indicating that the expected aldimine had formed”.

`NCCC[C@H](NC(=O)CCC(=O)O)C(=O)O` [SO, succinylornithine]: the “X-ray crystal structure of co-crystals, 2.45 Å” value in experiment [3] was “continuous electron density between PLP and SO was observed (see Figure 5C)”.
